Here are results for 19 molecules from patent US20260042755A1, “GPR6 INVERSE AGONISTS” (MapLight Therapeutics, Inc., priority 2022, published 2026).

In one test the target is T1, GPR3 (Homo sapiens, UniProt P46089).
T1 construct: expressed in transfected cells; host or cells: CHO cells
Kind of test: GPR3 antagonist functional cAMP assay (LANCE Ultra cAMP TR-FRET, CHO cells stably expressing GPR3). In kind it is cell-based. In a few lines:
(§1)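 Stable CHO-GPR6 or CHO-GPR3 cells (10,000/well) in Krebs-Ringer buffer with 0.1% BSA and 150 μM Ro 20-1724 were exposed to compounds for 45 min at 37° C (0.1% DMSO). cAMP read by LANCE Ultra TR-FRET; IC50 from 4-parameter fit normalized to DMSO and reference compounds.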

The target in a further test is T2, GPR6 (Homo sapiens, UniProt P46095).
T2 construct: expressed in transfected cells; host or cells: CHO cells
Put plainly: GPR6 antagonist functional cAMP assay (LANCE Ultra cAMP TR-FRET, CHO cells stably expressing GPR6). In kind it is cell-based. The gist of the method: as §1
Background: Changes in cAMP serve as a functional read-out for many G protein-coupled receptors.

[1] abbreviates: CHO cells stably expressing GPR3, cAMP assay (Example 24).
Where [2] appears, read: CHO cells stably expressing GPR6, cAMP assay (Example 24).
[3] abbreviates: procedure as described in Example 24.
Where [4] appears, read: CHO cells stably expressing GPR3, cAMP assay.
[5] abbreviates: CHO cells stably expressing GPR6, cAMP assay.

T1 sequence (P46089 whole entry, species assumed): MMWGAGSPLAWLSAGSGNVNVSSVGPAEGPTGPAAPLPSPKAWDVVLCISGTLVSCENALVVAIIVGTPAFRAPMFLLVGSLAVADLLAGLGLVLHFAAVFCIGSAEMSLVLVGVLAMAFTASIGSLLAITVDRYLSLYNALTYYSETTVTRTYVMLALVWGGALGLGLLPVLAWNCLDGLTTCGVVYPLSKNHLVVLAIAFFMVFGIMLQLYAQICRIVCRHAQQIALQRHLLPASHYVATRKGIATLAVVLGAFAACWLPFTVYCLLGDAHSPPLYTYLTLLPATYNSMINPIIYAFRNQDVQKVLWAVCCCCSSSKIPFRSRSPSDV
T2 sequence (P46095 whole entry): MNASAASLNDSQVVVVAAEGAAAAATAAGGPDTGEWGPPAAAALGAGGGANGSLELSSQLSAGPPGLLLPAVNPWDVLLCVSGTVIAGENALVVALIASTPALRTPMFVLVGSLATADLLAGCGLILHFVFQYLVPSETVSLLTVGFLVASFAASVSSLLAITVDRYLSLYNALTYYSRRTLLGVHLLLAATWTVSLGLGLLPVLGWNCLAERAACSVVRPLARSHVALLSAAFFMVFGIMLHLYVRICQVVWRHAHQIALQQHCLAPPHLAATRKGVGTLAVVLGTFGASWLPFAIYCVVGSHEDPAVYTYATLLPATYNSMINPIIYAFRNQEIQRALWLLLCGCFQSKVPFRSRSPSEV

One may read the IC50 as the midpoint of a concentration-inhibition curve. A lower IC50 goes with greater potency in that assay. Consider `CC(C)(O)[C@@H](O)c1cc2nc(-c3cnn(C4CC4)c3)c(N3CCN(Cc4ccccc4F)CC3)nc2cn1` (single isomer, unassigned) [Compound 746], for which the IC50 against GPR3 (procedure of Example 24) lay in the range of 1000 to 30000 nM; on GPR6 (procedure of Example 24) it was 100 to 1000 nM.
For `COc1ccc(C(=O)N2CCN(c3nc4c(nc3-c3cnn(C)c3)CN(C(C)=O)CC4)CC2)c(OC)c1` [Compound 287, 1-{2-[4-(2,4-dimethoxybenzoyl)piperazin-1-yl]-3-(1-methyl-1H-pyrazol-4-yl)-5H,6H,7H,8H-pyrido[3,4-b]pyrazin-6-yl}ethan-1-one], the IC50 against GPR3 (procedure of Example 24) and against GPR6 (procedure of Example 24) was ≥ 30000 nM in each case.
With `CC(=O)N1CCc2nc(N3CCC(Cc4ccc(F)cc4F)CC3)c(-c3cnn(C)c3)nc2C1` [Compound 375, 1-(2-{4-[(2,4-difluorophenyl)methyl]piperidin-1-yl}-3-(1-methyl-1H-pyrazol-4-yl)-5H,6H,7H,8H-pyrido[3,4-b]pyrazin-6-yl)ethan-1-one], the half-inhibitory concentration (IC50) against GPR3 (procedure of Example 24) was 100 to 1000 nM; against GPR6 (procedure of Example 24) it was < 100 nM.
As for `CC(=O)N1CCc2nc(N3CCC(Oc4ccc(F)cc4F)CC3)c(-c3cn[nH]c3C3CC3)nc2C1` [Compound 62, 1-[3-(5-cyclopropyl-1H-pyrazol-4-yl)-2-[4-(2,4-difluorophenoxy)piperidin-1-yl]-5H,6H,7H,8H-pyrido[3,4-b]pyrazin-6-yl]ethan-1-one], the IC50 against GPR3 (setting [1]) and against GPR6 (setting [2]) was 1000 to 30000 nM throughout.
Regarding `CC(C)(O)[C@](C)(O)c1cc2nc(-c3cnn(C4CC4)c3)c(N3CCN(Cc4ccc(F)cc4F)CC3)nc2cn1` [Compound 683, (R)-2-[2-(1-cyclopropyl-4-pyrazolyl)-3-{4-[(2,4-difluorophenyl)methyl]-1-piperazinyl}-1,4,6-triaza-7-naphthyl]-3-methyl-2,3-butanediol], the IC50 lay within 1000 to 30000 nM on GPR3 (procedure of Example 24) and 100 to 1000 nM against GPR6 (procedure of Example 24).
`CC(=O)N1CCc2nc(N3CCC(Oc4ccc(F)cc4F)CC3)c(-c3cccn(C)c3=O)nc2C1` [Compound 113, 3-{6-acetyl-2-[4-(2,4-difluorophenoxy)piperidin-1-yl]-5H,6H,7H,8H-pyrido[3,4-b]pyrazin-3-yl}-1-methyl-1,2-dihydropyridin-2-one]: the IC50 against GPR3 (setting [1]) was ≥ 30000 nM; on GPR6 (setting [2]), 1000 to 30000 nM.
As for `CC(=O)N1CCc2nc(N3CCC(Oc4cccc(F)c4)C3)c(-c3cnn(C)c3)nc2C1` (centres unmarked) [Compound 383, 1-{2-[3-(3-fluorophenoxy)pyrrolidin-1-yl]-3-(1-methyl-1H-pyrazol-4-yl)-5H,6H,7H,8H-pyrido[3,4-b]pyrazin-6-yl}ethan-1-one], the IC50 at GPR3 (setting [1]) and against GPR6 (setting [2]) was 1000 to 30000 nM in each case.
Consider `[2H]C([2H])([2H])C([2H])([2H])n1cc(-c2nc3c(nc2N2CCC(Oc4ccc(F)cc4F)CC2)CCN(C(C)=O)C3)cn1` [Compound 406, 1-{2-[4-(2,4-difluorophenoxy)piperidin-1-yl]-3-{1-[(1,1,2,2,2-2H5)ethyl]-1H-pyrazol-4-yl}-5H,6H,7H,8H-pyrido[3,4-b]pyrazin-6-yl}ethan-1-one], for which the IC50 on GPR3 (setting [1]) is 1000 to 30000 nM; on GPR6 (setting [2]), < 100 nM.
Consider `COCn1ccnc1-c1nc2ccncc2nc1N1CCN(Cc2ccc(F)cc2Cl)CC1` [Compound 28, 1-[(2-chloro-4-fluorophenyl)methyl]-4-{2-[1-(methoxymethyl)-1H-imidazol-2-yl]pyrido[3,4-b]pyrazin-3-yl}piperazine], for which the IC50 is 100 to 1000 nM against GPR3 (setting [3]) and ≥ 30000 nM against GPR6 (setting [3]).
Turning to `CC(=O)N1CCc2nc(N3CCC(C(O)c4ccc(F)cc4F)CC3)c(-c3cnn(C)c3)nc2C1` (centres unmarked) [Compound 545, 1-(2-{4-[(2,4-difluorophenyl)hydroxymethyl]-1-piperidyl}-3-(1-methyl-4-pyrazolyl)-5,6,7,8-tetrahydro-1,4,6-triaza-6-naphthyl)-1-ethanone], the figures for the IC50 at GPR3 (setting [4]) and against GPR6 (setting [5]) were 1000 to 30000 nM and 100 to 1000 nM, respectively.
Turning to `CNC(CO)c1cc2nc(N3CCC(Oc4ccc(F)cc4F)CC3)c(-c3cnn(C)c3)nc2cn1` (centres unmarked) [Compound 442, 2-{2-[4-(2,4-difluorophenoxy)piperidin-1-yl]-3-(1-methyl-1H-pyrazol-4-yl)pyrido[3,4-b]pyrazin-7-yl}-2-(methylamino)ethan-1-ol], the IC50 against GPR3 (setting [1]) and at GPR6 (setting [2]) was 1000 to 30000 nM in each case.
As to `CNCC(O)c1cc2nc(N3CCC(Oc4ccc(F)cc4F)CC3)c(-c3cnn(C)c3)nc2cn1` (centres unmarked) [Compound 414, 1-{2-[4-(2,4-difluorophenoxy)piperidin-1-yl]-3-(1-methyl-1H-pyrazol-4-yl)pyrido[3,4-b]pyrazin-7-yl}-2-(methylamino)ethan-1-ol], the IC50 on GPR3 (setting [1]) was in the range of 1000 to 30000 nM; against GPR6 (setting [2]), 100 to 1000 nM.
As to `CC(=O)N1CCc2nc(N3CCC(Oc4ccc(F)cc4F)CC3)c(C3CCC(F)(F)CC3)nc2C1` [Compound 217, 1-[3-(4,4-difluorocyclohexyl)-2-[4-(2,4-difluorophenoxy)piperidin-1-yl]-5H,6H,7H,8H-pyrido[3,4-b]pyrazin-6-yl]ethan-1-one], the IC50 against GPR3 (setting [1]) and against GPR6 (setting [2]) was 1000 to 30000 nM throughout.
Consider `CC(=O)N1CCc2nc(N3CCC(Oc4ccc(F)cc4F)CC3)c(-c3cnc4n3CCN(C)C4)nc2C1` [Compound 90, 1-(2-(4-(2,4-difluorophenoxy)piperidin-1-yl)-3-(7-methyl-5,6,7,8-tetrahydroimidazo[1,2-a]pyrazin-3-yl)-7,8-dihydropyrido[3,4-b]pyrazin-6(5H)-yl)ethan-1-one], for which the IC50 on GPR3 (setting [1]) and against GPR6 (setting [2]) was 1000 to 30000 nM in each case.
For the molecule `CC(=O)N1CCc2nc(N3CCC(Oc4ccc(F)cc4F)CC3)c(-c3ccn(C)c(=O)c3)nc2C1` [Compound 78, 4-{6-acetyl-2-[4-(2,4-difluorophenoxy)piperidin-1-yl]-5H,6H,7H,8H-pyrido[3,4-b]pyrazin-3-yl}-1-methyl-1,2-dihydropyridin-2-one], the concentration for half-maximal inhibition (IC50) at GPR3 (setting [1]) and at GPR6 (setting [2]) was 1000 to 30000 nM throughout.
For `CC(=O)N1CCc2nc(N3CCN(Cc4ccsc4)CC3)c(-c3cnn(C)c3)nc2C1` [Compound 514, 1-[3-(1-methyl-4-pyrazolyl)-2-{4-[(3-thienyl)methyl]-1-piperazinyl}-5,6,7,8-tetrahydro-1,4,6-triaza-6-naphthyl]-1-ethanone], the IC50 at GPR3 (setting [4]) and at GPR6 (setting [5]) was 1000 to 30000 nM each time.
As to `CC(=O)N1CCc2nc(N3CCN(Cc4cc(Cl)c(F)cc4F)CC3)c(-c3cnn(C)c3)nc2C1` [Compound 360, 1-(2-{4-[(5-chloro-2,4-difluorophenyl)methyl]piperazin-1-yl}-3-(1-methyl-1H-pyrazol-4-yl)-5H,6H,7H,8H-pyrido[3,4-b]pyrazin-6-yl)ethan-1-one], the IC50 on GPR3 (procedure of Example 24) was in the range of 1000 to 30000 nM; at GPR6 (procedure of Example 24), 100 to 1000 nM.
Turning to `CCn1cc(-c2nc3c(nc2N2CCC(Oc4ccc(F)cc4F)CC2)CCN(C(=O)COC)C3)cn1` [Compound 275, 1-{2-[4-(2,4-difluorophenoxy)piperidin-1-yl]-3-(1-ethyl-1H-pyrazol-4-yl)-5H,6H,7H,8H-pyrido[3,4-b]pyrazin-6-yl}-2-methoxyethan-1-one], the figures for the IC50 at GPR3 (procedure of Example 24) and on GPR6 (procedure of Example 24) were 100 to 1000 nM and < 100 nM, respectively.
For the molecule `CC(=O)N1CCc2nc(N3CCC(Oc4ccc(F)cc4F)CC3)c(-c3cccc(=O)n3C)nc2C1` [Compound 36, 6-{6-acetyl-2-[4-(2,4-difluorophenoxy)piperidin-1-yl]-5H,6H,7H,8H-pyrido[3,4-b]pyrazin-3-yl}-1-methyl-1,2-dihydropyridin-2-one], the figures for the IC50 at GPR3 (setting [3]) and at GPR6 (setting [3]) were 100 to 1000 nM and 1000 to 30000 nM, respectively.
